The assay has as its target T1, Bone morphogenetic protein 1 (Homo sapiens, UniProt P13497).
T1 sequence (P13497 whole entry): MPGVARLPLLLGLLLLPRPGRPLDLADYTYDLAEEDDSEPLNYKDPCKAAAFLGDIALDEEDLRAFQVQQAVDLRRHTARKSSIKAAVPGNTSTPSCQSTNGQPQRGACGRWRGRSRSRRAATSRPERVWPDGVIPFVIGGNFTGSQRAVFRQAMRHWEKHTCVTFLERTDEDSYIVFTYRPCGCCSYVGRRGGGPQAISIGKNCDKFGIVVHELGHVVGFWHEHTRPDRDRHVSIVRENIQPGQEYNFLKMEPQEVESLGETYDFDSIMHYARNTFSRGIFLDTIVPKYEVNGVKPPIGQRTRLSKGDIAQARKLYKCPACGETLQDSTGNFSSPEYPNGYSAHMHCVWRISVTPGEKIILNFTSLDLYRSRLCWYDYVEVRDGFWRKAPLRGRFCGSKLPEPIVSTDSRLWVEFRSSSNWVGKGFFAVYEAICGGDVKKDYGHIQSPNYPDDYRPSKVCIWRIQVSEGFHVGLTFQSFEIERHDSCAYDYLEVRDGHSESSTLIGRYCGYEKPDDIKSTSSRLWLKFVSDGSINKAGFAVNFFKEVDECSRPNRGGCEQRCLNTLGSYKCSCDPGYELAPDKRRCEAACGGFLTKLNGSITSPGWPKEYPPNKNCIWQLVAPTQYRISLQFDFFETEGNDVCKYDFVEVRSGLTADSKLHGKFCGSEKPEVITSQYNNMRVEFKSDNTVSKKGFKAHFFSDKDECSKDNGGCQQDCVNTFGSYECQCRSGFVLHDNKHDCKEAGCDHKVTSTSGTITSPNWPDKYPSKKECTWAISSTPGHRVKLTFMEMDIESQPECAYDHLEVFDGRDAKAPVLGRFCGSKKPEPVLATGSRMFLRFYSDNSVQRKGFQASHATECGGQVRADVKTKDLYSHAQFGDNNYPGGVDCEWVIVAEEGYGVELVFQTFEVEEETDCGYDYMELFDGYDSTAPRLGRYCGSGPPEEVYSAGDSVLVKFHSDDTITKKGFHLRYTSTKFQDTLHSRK
In words: In vitro inhibitory activity against procollagen C-terminal proteinase (PCP) in HT1080 cells using synthetic peptide as substrate. It is filed as cell-based, HT-1080.
`COc1ccc(S(=O)(=O)N(Cc2ccc3c(c2)OCO3)[C@H](CCNC(=O)CNc2cnccn2)C(=O)NO)cc1` gave an inhibition constant (Ki) of 2.5 µM. The value for `COC(=O)c1ccc(C(=O)NC[C@H](C(=O)NO)N(Cc2ccc3c(c2)OCO3)S(=O)(=O)c2ccc(OC)cc2)cc1` was 0.007 µM; that for `CCOc1ccc(NC(=O)NC[C@H](C(=O)NO)N(Cc2ccc3c(c2)OCO3)S(=O)(=O)c2ccc(OC)cc2)cc1` was 0.022 µM; that for `COc1ccc(S(=O)(=O)N(Cc2ccc3c(c2)OCO3)[C@H](CNS(=O)(=O)Cc2cccc([N+](=O)[O-])c2)C(=O)NO)cc1` was 0.028 µM. As for `COc1ccc(S(=O)(=O)N(Cc2ccc3c(c2)OCO3)[C@H](CCNC(=O)c2c(-c3ccccc3)noc2C)C(=O)NO)cc1`, the figure is 0.96 µM; as for `COc1ccc(S(=O)(=O)N(Cc2ccc3c(c2)OCO3)[C@H](CCNC(=O)c2ccccc2-n2cccc2)C(=O)NO)cc1`, 0.53 µM; as for `COc1ccc(S(=O)(=O)N(Cc2ccc3c(c2)OCO3)[C@H](CCNC(=O)c2ccccc2)C(=O)NO)cc1`, 0.47 µM. The molecule `COc1ccc(S(=O)(=O)N(Cc2ccc3c(c2)OCO3)[C@H](CNC(=O)c2cnoc2C)C(=O)NO)cc1` came in with a Ki of 1.96 µM.

`COc1ccc(S(=O)(=O)N(Cc2ccc3c(c2)OCO3)[C@H](CNCc2ccc(NC(C)=O)cc2)C(=O)NO)cc1` registered a Ki of 1.01 µM. Regarding `COc1ccc(S(=O)(=O)N(Cc2ccc3c(c2)OCO3)[C@H](CNC(=O)c2ccccc2-n2cccc2)C(=O)NO)cc1`, the Ki is 0.008 µM. The molecule `COC(=O)c1ccc(C(=O)NCC[C@H](C(=O)NO)N(Cc2ccc3c(c2)OCO3)S(=O)(=O)c2ccc(OC)cc2)cc1` displayed a Ki of 0.84 µM.

In the case of `COc1ccc(S(=O)(=O)N(Cc2ccc3c(c2)OCO3)[C@H](CNC(=O)CNc2cnccn2)C(=O)NO)cc1`, the Ki came out at 0.25 µM. As for `COc1ccc(S(=O)(=O)N(Cc2ccc3c(c2)OCO3)[C@H](CCCNC(=O)c2ccccc2)C(=O)NO)cc1`, the figure is 0.1 µM; as for `COc1ccc(S(=O)(=O)N(Cc2ccc3c(c2)OCO3)[C@H](CCNC(=O)c2cnoc2C)C(=O)NO)cc1`, 0.086 µM. `COc1ccc(S(=O)(=O)N(Cc2ccc3c(c2)OCO3)[C@H](CNC(=O)NS(=O)(=O)c2ccc(Cl)cc2)C(=O)NO)cc1`: the Ki worked out at 0.018 µM. The value for `COc1ccc(S(=O)(=O)N(Cc2ccc3c(c2)OCO3)[C@H](CCNC(=O)CCc2nc3ccccc3[nH]2)C(=O)NO)cc1` was 0.41 µM; that for `COc1ccc(S(=O)(=O)N(Cc2ccc3c(c2)OCO3)[C@H](CNC(=O)c2ccccc2)C(=O)NO)cc1` was 0.014 µM.

Molecule `CCOC(=O)C1CCC(NCC(=O)NCC[C@H](C(=O)NO)N(Cc2ccc3c(c2)OCO3)S(=O)(=O)c2ccc(OC)cc2)CC1` (some centres undefined) showed a Ki of 0.47 µM. Consider `COc1ccc(S(=O)(=O)N(Cc2ccc3c(c2)OCO3)[C@H](CCCCNC(=O)c2ccccc2)C(=O)NO)cc1`, for which the Ki was 0.35 µM.

The term Ki denotes the dissociation constant of the complex between target and ligand, obtained from inhibition or displacement. Read a high Ki as a looser hold on the target.

The record behind these values is ChEMBL document CHEMBL1146613, “Novel inhibitors of procollagen C-terminal proteinase. Part 1: diamino Acid hydroxamates” (Bioorg Med Chem Lett, 2003).
